# Measured values from US20210186834A1, “TAHITI VANILLA EXTRACT AND 4-[(1E,3S)-3-ETHENYL-3,7-DIMETHYLOCTA-1,6-DIENYL]PHENOL FOR COMBATTING CUTANEOUS AGEING” (PIERRE FABRE DERMO-COSMETIQUE, priority 2018, published 2021).
# Assays:
# Type in all cases: cell-based
# [1] = tested on: protein P16; assay: Expression of P16 by immunofluorescence after acute UVA stress on normal human fibroblasts; settings: bakuchiol 0.5 μg/mL, added 1 h before UVA 60 J/cm^2, sampled 24 h after irradiation, N=3 donors; P=NS versus the non-treated group
# Method: The biological model used for this study consists of normal human dermis fibroblasts obtained from healthy donors. The fibroblasts are cultured in a standard culture medium for 36 hours, the products to test (vehicle (DMSO), bakuchiol (0.5 μg/ml), vanilla extract (0.05%, p/v) and the combination thereof (same concentrations)) are added to the culture medium one hour before the UVA radiation test. This test consists in a photo-ageing stress: the fibroblasts are irradiated by UVA at a dose of 60 J/cm^2 (Waldmann UVA lamp). A condition without irradiation is also realised. The fibroblasts are next sampled 24 h after irradiation for immunofluorescence analyses. All the experimental conditions are realised with N=3 donors. The fluorescence was quantified using Nikon NIS Element software in order to obtain an average fluorescence per cell and per condition. The treatment of human fibroblasts with acute UVA stress induces a significant increase in the expression of P16, going from 500 AU to almost 1000 AU, P<0.001, versus the non-stimulated condition. […] The statistics are produced using a one way variance analysis (one-way ANOVA) followed by a Dunnett test.
# [2] = tested on: IL8; assay: Expression of IL8 by immunofluorescence after acute UVA stress on normal human fibroblasts; settings: bakuchiol 0.5 μg/ml, UVA 60 J/cm^2, 24 h after irradiation; P<0.05 versus non-treated conditions
# Method: (§1) The fibroblasts are cultured in a standard culture medium for 36 hours, the products to test (vehicle (DMSO), bakuchiol (0.5 μg/ml), vanilla extract (0.05%, p/v) and the combination thereof (same concentrations)) are added to the culture medium one hour before the UVA radiation test. This test consists in a photo-ageing stress: the fibroblasts are irradiated by UVA at a dose of 60 J/cm^2 (Waldmann UVA lamp). A condition without irradiation is also realised. The fibroblasts are next sampled 24 h after irradiation for immunofluorescence analyses. All the experimental conditions are realised with N=3 donors. The fluorescence was quantified using Nikon NIS Element software in order to obtain an average fluorescence per cell and per condition. The protocol used is rigorously the same as that described in example 1. The products tested are the same, the concentrations also. The expression of IL8 is then quantified by immunofluorescence. The treatment of human fibroblasts with acute UVA stress induces a significant increase in the expression of IL8, going from 100% to 5300% (P<0.05) compared to the condition without irradiation. In addition, it appears that the treatment by UVA induces important morphological changes in the fibroblasts, going from a star-shaped model to a spindle-shaped model.
# [3] = tested on: normal human fibroblasts; assay: Morphological changes of fibroblasts induced by exposure to UVA; settings: bakuchiol 0.5 μg/ml, vanilla extract 0.05% (p/v), combination at the same concentrations; UVA 60 J/cm^2
# Method: as §1
structure (smiles),measurement,setting,value
"C=C[C@@](C)(/C=C/c1ccc(O)cc1)CCC=C(C)C [bakuchiol, 4-[(1E,3S)-3-ethenyl-3,7-dimethylocta-1,6-dienyl]phenol]",reduction of the expression of P16 following irradiation,[1],−44.4%
same,decrease of the expression of IL8 following exposure to UVA,[2],88.3%
same,effect on morphological changes (star-shaped to spindle-shaped) induced by exposure to UVA,[3],prevention of the morphological changes
